Measurements: article PMC6302903, “Protein and Chemical Determinants of BL-1249 Action and Selectivity for K2P Channels” (ACS Chemical Neuroscience, 2018)

What was measured:
K2P10.1(TREK-2) = molecular target: T1, K2P10.1(TREK-2) (Mus musculus, UniProt Q8BUW1); experiment: TEVC of K2P10.1(TREK-2) in Xenopus oocytes; type: cell-based
T1 construct: expressed in transfected cells; host or cells: Xenopus laevis oocytes injected with mRNA made from pGEMHE/pMO
Description: Constructs for murine K2P channels, including K2P2.1(TREK-1) (Gene ID 16526), K2P10.1(TREK-2) (Gene ID 72258), K2P4.1(TRAAK) (Gene ID 16528), K2P5.1(TASK-2) (Gene ID 16529), K2P3.1(TASK-1) (Gene ID 16527), K2P9.1(TASK-3) (Gene ID 223604), and K2P18.1(TRESK) (Gene ID 332396) in pGEMHE/pMO, were used for Xenopus oocyte experiments as previously described.[10],[26] Murine K2P2.1(TREK-1) (Gene ID 16526) was expressed in HEK-293 cells using a pIRES-EGFP construct as previously described.[26] Murine K2P13.1(THIK-1) (Gene ID 217826) and K2P1.1(TWIK-1) (Gene ID 16525) were cloned into pGEMHE/pMO for use in Xenopus oocytes. […]
(§1) Xenopus laevis oocytes were harvested in accordance with UCSF IACUC protocol AN129690 and digested in calcium-free ND-96 (96 mM NaCl, 2 mM KCl, 3.8 mM MgCl2) immediately following harvest, as previously described.[6],[10] […] Defolliculated stage V–VI oocytes were injected with 0.2–6.0 ng of mRNA in 50 nL, and currents were recorded 24–48 h after injection. mRNA was synthesized from plasmid DNA using mMessage mMachine Kit (T7 promoter, Ambion, Life Technologies) and purified using RNEasy Kit (Qiagen). […] Once stabilized basal currents were recorded, compounds were perfused at various concentrations in standard ND96 and currents were allowed to increase to stabilization before recording final current. […]

K2P2.1(TREK-1) W275S = molecular target: T2, K2P2.1(TREK-1) W275S (Mus musculus, UniProt P97438, W290S); experiment: TEVC of C-type gate activating mutant W275S; type: cell-based; details: Xenopus oocytes
T2 construct: expressed in transfected cells; host or cells: Xenopus laevis oocytes, mRNA injected
T2 sequence (P97438 1-411 isoform P97438-2 W275S): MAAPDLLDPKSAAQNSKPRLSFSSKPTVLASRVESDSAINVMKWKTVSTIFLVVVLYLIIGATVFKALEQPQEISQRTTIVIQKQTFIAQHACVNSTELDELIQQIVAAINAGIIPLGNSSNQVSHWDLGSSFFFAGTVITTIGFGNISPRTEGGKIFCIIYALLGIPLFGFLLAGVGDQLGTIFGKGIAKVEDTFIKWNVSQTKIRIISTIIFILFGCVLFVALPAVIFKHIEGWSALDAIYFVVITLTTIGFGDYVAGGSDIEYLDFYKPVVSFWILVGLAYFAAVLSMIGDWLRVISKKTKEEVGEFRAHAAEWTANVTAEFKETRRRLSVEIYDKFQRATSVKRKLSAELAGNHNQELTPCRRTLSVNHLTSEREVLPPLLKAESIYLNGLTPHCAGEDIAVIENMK
Description: Diverse types of physical and chemical stimuli activate K2P2.1(TREK-1) by stabilizing the C-type gate and switching the channel into a “leak” mode that is characterized by a loss of outward rectification of the potassium current.[6],[8] Accordingly, we used inside-out patch clamp experiments of K2P2.1(TREK-1) expressed in HEK293 cells to test whether BL-1249 acts on the C-type gate. […] Together with previous single point concentration studies showing the insensitivity of K2P2.1(TREK-1) W275S in mammalian cells,[40] our data provide definitive evidence that BL-1249 activates K2P2.1(TREK-1) by stimulating the C-type gate. […]
as §1

T1 sequence (Q8BUW1 whole entry): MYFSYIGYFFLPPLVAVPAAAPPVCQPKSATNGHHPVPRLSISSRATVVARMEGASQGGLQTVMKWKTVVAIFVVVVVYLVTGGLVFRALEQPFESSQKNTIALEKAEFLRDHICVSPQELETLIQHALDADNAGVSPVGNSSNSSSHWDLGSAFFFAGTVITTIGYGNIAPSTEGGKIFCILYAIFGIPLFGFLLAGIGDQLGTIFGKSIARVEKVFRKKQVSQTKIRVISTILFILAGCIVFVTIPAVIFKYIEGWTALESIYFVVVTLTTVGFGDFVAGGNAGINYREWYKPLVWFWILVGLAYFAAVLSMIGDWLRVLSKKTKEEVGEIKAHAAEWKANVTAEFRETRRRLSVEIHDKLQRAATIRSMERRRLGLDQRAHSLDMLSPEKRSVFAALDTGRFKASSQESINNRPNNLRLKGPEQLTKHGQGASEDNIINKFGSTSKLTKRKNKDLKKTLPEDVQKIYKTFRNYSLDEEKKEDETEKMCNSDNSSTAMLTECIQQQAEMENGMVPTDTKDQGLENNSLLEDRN

EC50 (K2P10.1(TREK-2); I/I0 at 0 mV): 8 ± 0.8 µM
K2P10.1(TREK-2) current response (K2P10.1(TREK-2); extracellular application of 10 μM): clear activation responses
EC50 (K2P2.1(TREK-1) W275S): > 60 µM
sensitivity of K2P2.1(TREK-1) W275S to compound (K2P2.1(TREK-1) W275S): insensitive
SMILES: c1ccc(-c2nnn[nH]2)c(Nc2cccc3c2CCCC3)c1 [BL-1249, (5,6,7,8-tetrahydro-naphthalen-1-yl)-[2-(1H-tetrazol-5-yl)-phenyl]-amine]
